Data: patent US10800792B2, “Inhibitors of Bruton's tyrosine kinase and method of their use” (JANSSEN PHARMACEUTICA NV, priority 2015, dated 2020)

Target: unphosphorylated-BTK kinase domain (UP-BTK), GST-tagged human BTK (389-659aa) (Homo sapiens (Human), UniProt Q06187)
Assay: BTK kinase Lanthascreen binding assay
Conditions: Lanthascreen tracer competition, 60 minutes incubation, pIC50 = negative log of the IC50 in molar; for IC50: read-out: BTK_I_binding pIC50 (converted)
Summary of the method: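 Lanthascreen competition binding; test compound vs fluorescent tracer on unphosphorylated BTK. Output: pIC50 (−log IC50, M).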

Chain of unphosphorylated-BTK kinase domain (UP-BTK), GST-tagged human BTK (389-659aa) (Q06187 389-659): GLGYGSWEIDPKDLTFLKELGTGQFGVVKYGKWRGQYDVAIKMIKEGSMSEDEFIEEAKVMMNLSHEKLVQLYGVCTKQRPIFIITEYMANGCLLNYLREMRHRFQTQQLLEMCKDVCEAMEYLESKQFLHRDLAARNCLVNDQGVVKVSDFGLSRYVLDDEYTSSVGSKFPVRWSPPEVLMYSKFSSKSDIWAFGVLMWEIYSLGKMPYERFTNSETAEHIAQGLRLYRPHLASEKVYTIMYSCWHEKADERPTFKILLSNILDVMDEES

Q: Which “BTK_I_binding pIC50” value does the source give for CCC(=O)N1CCC[C@@H](NC(=O)c2sc3nccc4c3c2NC(=O)N4c2ccc(Oc3ccccn3)cc2)C1 [Example 807, (R)-4-Oxo-N-(1-propionylpiperidin-3-yl)-5-(4-(pyridin-2-yloxy)phenyl)-4,5-dihydro-3H-1-thia-3,5,8-triazaacenaphthylene-2-carboxamide] here?
A: <6

Q: For CC(=O)N1CCC[C@@H](NC(=O)c2sc3nccc4c3c2NC(=O)N4c2ccc(Oc3ccccn3)cc2)C1 [Example 808, (R)—N-(1-Acetylpiperidin-3-yl)-4-oxo-5-(4-(pyridin-2-yloxy)phenyl)-4,5-dihydro-3H-1-thia-3,5,8-triazaacenaphthylene-2-carboxamide], which “BTK_I_binding pIC50” value is on record?
A: <6

Q: How did the “BTK_I_binding pIC50” value turn out when CCC(=O)N1CCC[C@@H](NC(=O)c2sc3nccc4c3c2NC(=O)N4c2ccc(Oc3cccnn3)cc2C)C1 [Example 809, (R)-5-(2-Methyl-4-(pyridazin-3-yloxy)phenyl)-4-oxo-N-(1-propionylpiperidin-3-yl)-4,5-dihydro-3H-1-thia-3,5,8-triazaacenaphthylene-2-carboxamide] was run?
A: <6

Q: How did the “BTK_I_binding pIC50” value turn out when CC(=O)N1CCC[C@@H](NC(=O)c2sc3nccc4c3c2NC(=O)N4c2ccc(Oc3cccnn3)cc2C)C1 [Example 810, (R)—N-(1-Acetylpiperidin-3-yl)-5-(2-methyl-4-(pyridazin-3-yloxy)phenyl)-4-oxo-4,5-dihydro-3H-1-thia-3,5,8-triazaacenaphthylene-2-carboxamide] was run?
A: <6

Q: How did the “BTK_I_binding pIC50” value turn out when CC(=O)N1CCC[C@@H](NC(=O)c2sc3nccc4c3c2NC(=O)N4c2ccc(Oc3cccnn3)cc2)C1 [Example 812, (R)—N-(1-Acetylpiperidin-3-yl)-4-oxo-5-(4-(pyridazin-3-yloxy)phenyl)-4,5-dihydro-3H-1-thia-3,5,8-triazaacenaphthylene-2-carboxamide] was run?
A: <6

Q: Which IC50 does the source give for Cc1cc(Oc2ccccc2)ccc1N1C(=O)Nc2c(NC(=O)C3CCCN(C(=O)/C(C#N)=C/C(C)(C)C)C3)sc3nccc1c23 (stereo not shown) [Example 816, (E)-1-(2-Cyano-4,4-dimethylpent-2-enoyl)-N-(5-(2-methyl-4-phenoxyphenyl)-4-oxo-4,5-dihydro-3H-1-thia-3,5,8-triazaacenaphthylen-2-yl)piperidine-3-carboxamide] here?
A: 1000 nM

Q: How did the “BTK_I_binding pIC50” value turn out when Cc1cc(Oc2ccccc2)ccc1N1C(=O)Nc2c(NC(=O)C3CCCN(C(=O)CC#N)C3)sc3nccc1c23 (stereo not shown) [Example 817, 1-(2-Cyanoacetyl)-N-(5-(2-methyl-4-phenoxyphenyl)-4-oxo-4,5-dihydro-3H-1-thia-3,5,8-triazaacenaphthylen-2-yl)piperidine-3-carboxamide] was run?
A: 6.0

Q: With CCC(=O)N1CCCC(C(=O)Nc2sc3nccc4c3c2NC(=O)N4c2ccc(Oc3ccccc3)cc2C)C1 (stereo not shown) [Example 818, N-(5-(2-Methyl-4-phenoxyphenyl)-4-oxo-4,5-dihydro-3H-1-thia-3,5,8-triazaacenaphthylen-2-yl)-1-propionylpiperidine-3-carboxamide] as the compound, how does the “BTK_I_binding pIC50” value read?
A: 5.9

Q: For Cc1cc(Oc2ccccc2)ccc1N1C(=O)Nc2c(NC(=O)C3CCN(C(=O)CC#N)CC3)sc3nccc1c23 [Example 819, 1-(2-Cyanoacetyl)-N-(5-(2-methyl-4-phenoxyphenyl)-4-oxo-4,5-dihydro-3H-1-thia-3,5,8-triazaacenaphthylen-2-yl)piperidine-4-carboxamide], which “BTK_I_binding pIC50” value is on record?
A: 5.9

Q: For C=CC(=O)N1CCC(C(=O)Nc2sc3nccc4c3c2NC(=O)N4c2ccc(Oc3ccccc3)cc2C)CC1 [Example 820, 1-Acryloyl-N-(5-(2-methyl-4-phenoxyphenyl)-4-oxo-4,5-dihydro-3H-1-thia-3,5,8-triazaacenaphthylen-2-yl)piperidine-4-carboxamide], which “BTK_I_binding pIC50” value is on record?
A: 5.9

Q: For CCN1CCCC(C(=O)Nc2sc3nccc4c3c2NC(=O)N4c2ccc(Oc3ccccc3)cc2C)C1 (stereo not shown) [Example 821, 1-Ethyl-N-(5-(2-methyl-4-phenoxyphenyl)-4-oxo-4,5-dihydro-3H-1-thia-3,5,8-triazaacenaphthylen-2-yl)piperidine-3-carboxamide], which “BTK_I_binding pIC50” value is on record?
A: 5.8

Q: With Cc1cc(Oc2ccccc2)ccc1N1C(=O)Nc2c(NC(=O)C3CCN(C#N)CC3)sc3nccc1c23 [Example 822, 1-Cyano-N-(5-(2-methyl-4-phenoxyphenyl)-4-oxo-4,5-dihydro-3H-1-thia-3,5,8-triazaacenaphthylen-2-yl)piperidine-4-carboxamide] as the compound, how does the “BTK_I_binding pIC50” value read?
A: 5.8

Q: Cc1cc(Oc2ccccc2)ccc1N1C(=O)Nc2c(NC(=O)C3CCCN(C)C3)sc3nccc1c23 (stereo not shown) [Example 823, 1-Methyl-N-(5-(2-methyl-4-phenoxyphenyl)-4-oxo-4,5-dihydro-3H-1-thia-3,5,8-triazaacenaphthylen-2-yl)piperidine-3-carboxamide] was tested. Which IC50 did it give?
A: 3160 nM

Q: Which “BTK_I_binding pIC50” value does the source give for Cc1cc(C(=O)Nc2cc(C(F)(F)F)ccn2)ccc1N1C(=O)Nc2c(C(=O)N[C@@H]3CCCN(C(=O)/C(C#N)=C/C4CC4)C3)sc3nccc1c23 [Example 835, (R,E)-N-(1-(2-Cyano-3-cyclopropylacryloyl)piperidin-3-yl)-5-(2-methyl-4-((4-(trifluoromethyl)pyridin-2-yl)carbamoyl)phenyl)-4-oxo-4,5-dihydro-3H-1-thia-3,5,8-triazaacenaphthylene-2-carboxamide] here?
A: 8.0

Q: With N#C/C(=C\C1CC1)C(=O)N1CCC[C@@H](NC(=O)c2sc3nccc4c3c2NC(=O)N4c2ccc(C(=O)Nc3cc(C(F)(F)F)ccn3)cc2F)C1 [Example 836, (R,E)-N-(1-(2-Cyano-3-cyclopropylacryloyl)piperidin-3-yl)-5-(2-fluoro-4-((4-(trifluoromethyl)pyridin-2-yl)carbamoyl)phenyl)-4-oxo-4,5-dihydro-3H-1-thia-3,5,8-triazaacenaphthylene-2-carboxamide] as the compound, how does the “BTK_I_binding pIC50” value read?
A: 7.9

Q: Which “BTK_I_binding pIC50” value does the source give for Cc1cc(Oc2ccccc2)ccc1N1C(=O)Nc2c(C(=O)N[C@@H]3CCN(C#N)C3)sc3nccc1c23 [Example 837, (R)—N-(1-Cyanopyrrolidin-3-yl)-5-(2-methyl-4-phenoxyphenyl)-4-oxo-4,5-dihydro-3H-1-thia-3,5,8-triazaacenaphthylene-2-carboxamide] here?
A: 7.9

Q: For Cc1cc(Oc2ccccc2)ccc1N1C(=O)Nc2c(C(=O)N[C@@H]3CCN(C(=O)CC#N)C3)sc3nccc1c23 [Example 838, (R)—N-(1-(2-Cyanoacetyl)pyrrolidin-3-yl)-5-(2-methyl-4-phenoxyphenyl)-4-oxo-4,5-dihydro-3H-1-thia-3,5,8-triazaacenaphthylene-2-carboxamide], which “BTK_I_binding pIC50” value is on record?
A: 7.9

Q: Which IC50 does the source give for C=CC(=O)N1CCC[C@@H](NC(=O)c2sc3nccc4c3c2NC(=O)N4c2ccc(Oc3ccccc3)cc2C)C1 [Example 839, (R)—N-(1-Acryloylpiperidin-3-yl)-5-(2-methyl-4-phenoxyphenyl)-4-oxo-4,5-dihydro-3H-1-thia-3,5,8-triazaacenaphthylene-2-carboxamide] here?
A: 12.6 nM

Q: With N#C/C(=C\C1CC1)C(=O)N1CCC[C@@H](NC(=O)c2sc3nccc4c3c2NC(=O)N4c2cccc(Oc3ccccc3)c2)C1 [Example 840, (R,E)-N-(1-(2-Cyano-3-cyclopropylacryloyl)piperidin-3-yl)-4-oxo-5-(3-phenoxyphenyl)-4,5-dihydro-3H-1-thia-3,5,8-triazaacenaphthylene-2-carboxamide] as the compound, how does the “BTK_I_binding pIC50” value read?
A: 7.8

Q: COCCC(=O)N1CCC[C@@H](NC(=O)c2sc3nccc4c3c2NC(=O)N4c2ccc(Oc3ccccc3)cc2C)C1 [Example 841, (R)—N-(1-(3-Methoxypropanoyl)piperidin-3-yl)-5-(2-methyl-4-phenoxyphenyl)-4-oxo-4,5-dihydro-3H-1-thia-3,5,8-triazaacenaphthylene-2-carboxamide] was tested. Which “BTK_I_binding pIC50” value did it give?
A: 7.7

Q: Which “BTK_I_binding pIC50” value does the source give for C=CC(=O)N1CCC[C@@H](NC(=O)c2sc3nccc4c3c2NC(=O)N4c2cc(-c3cccc(F)c3F)ccc2C)C1 [Example 842, (R)—N-(1-Acryloylpiperidin-3-yl)-5-(2′,3′-difluoro-4-methyl-[1,1′-biphenyl]-3-yl)-4-oxo-4,5-dihydro-3H-1-thia-3,5,8-triazaacenaphthylene-2-carboxamide] here?
A: 7.7

Q: With CCC(=O)N1CC[C@@H](NC(=O)c2sc3nccc4c3c2NC(=O)N4c2ccc(Oc3ccccc3)cc2C)C1 [Example 843, (R)-5-(2-Methyl-4-phenoxyphenyl)-4-oxo-N-(1-propionylpyrrolidin-3-yl)-4,5-dihydro-3H-1-thia-3,5,8-triazaacenaphthylene-2-carboxamide] as the compound, how does the “BTK_I_binding pIC50” value read?
A: 7.6

Q: Cc1cc(Oc2ccccc2)ccc1N1C(=O)Nc2c(C(=O)N[C@@H]3CCN(C(=O)/C(C#N)=C/C4CC4)C3)sc3nccc1c23 [Example 844, (R,E)-N-(1-(2-Cyano-3-cyclopropylacryloyl)pyrrolidin-3-yl)-5-(2-methyl-4-phenoxyphenyl)-4-oxo-4,5-dihydro-3H-1-thia-3,5,8-triazaacenaphthylene-2-carboxamide] was tested. Which “BTK_I_binding pIC50” value did it give?
A: 7.6

Q: With C=CC(=O)N1CCC[C@@H](NC(=O)c2sc3nccc4c3c2NC(=O)N4c2ccc(Oc3ccccn3)cc2)C1 [Example 846, (R)—N-(1-Acryloylpiperidin-3-yl)-4-oxo-5-(4-(pyridin-2-yloxy)phenyl)-4,5-dihydro-3H-1-thia-3,5,8-triazaacenaphthylene-2-carboxamide] as the compound, how does the “BTK_I_binding pIC50” value read?
A: 7.6

Q: C=CC(=O)N1CC[C@@H](NC(=O)c2sc3nccc4c3c2NC(=O)N4c2ccc(Oc3cccc(COc4ccccc4C#N)c3)cc2C)C1 [Example 847, (R)—N-(1-Acryloylpyrrolidin-3-yl)-5-(4-(3-((2-cyanophenoxy)methyl)phenoxy)-2-methylphenyl)-4-oxo-4,5-dihydro-3H-1-thia-3,5,8-triazaacenaphthylene-2-carboxamide] was tested. Which “BTK_I_binding pIC50” value did it give?
A: 7.6
